From patent publication US20240132931A1, “Biological Indicator with Enhanced Volatile Organic Compound Detection” (O&M Halyard, Inc., priority 2022, published 2024)

Columns and labels:
[1] = tested on: Geobacillus stearothermophilus spores; assay: VOC production (SPME, GC-MS) during the first 15 minutes of spore germination, growth medium with L-threonine or glucose (Example 2); assay type: cell-based
Experimental: Spore suspension of Geobacillus stearothermophilus (1×10^6 CFU/0.1 mL) were heated for 30 min at 99-100° C. to kill all vegetative cell that might have been present in the suspension.
A growth medium composed of a modified soybean casein digest broth diluted (200×) with the sterilized germination medium (1,0 mM L-valine in 10 mM sodium phosphate buffer (pH 8.0) as described by “thou T, Dong Z, Setlow P, Li Y-q (2013), Kinetics of Germination of Individual Spores of Geobacillus stearothermophilus as Measured by Raman Spectroscopy and Differential Interference Contrast Microscopy. PLoS ONE 8(9): e74987)” was used with or without the addition of L-threonine or glucose at 5 mM. One test was also performed with the germination medium by itself, without the modified soybean casein digest broth diluted (200×) and the additives. The controls included the SPME fiber alone, in the presence of 2500 μg methanol, and growth medium with and without the L-Threonine or glucose.
For the VOC testing, 0.5 mL of the control solution (methanol) or sterile growth medium was transferred in each VOC collection vials. The vials were prewarm at 65° C. for at least 10 minutes. […] The SPME fibers were removed 15 minutes after the addition of the spores and were analyzed using the GC-MS according to the lab protocols for the apparatus.

[2] = tested on: Geobacillus stearothermophilus spores; assay: VOC production (SPME, GC-MS) during the first 20 minutes of spore germination, growth medium with or without additive (Example 1); assay type: cell-based
Experimental: Spore suspension of Geobacillus stearothermophilus (1×10^6 CFU/0.1 mL) were diluted to reach a concentration of 500-800 CFU/30-50 μL after being heat shock for 15 min at 95-99° C. to kill all vegetative cell that might have been present in the suspension.
A modified soybean casein digest broth was diluted (10×) with HPLC grade water and sterilize by filtration 0.45 μm to limit the amount of VOC in the background. was used with or without the addition of an additive.
For the VOC testing, 0.5 mL of the sterile diluted growth medium was transferred in each VOC collection vials. The vials were prewarm at 60° C. for at least 10 minutes. Before starting the VOC sampling, the additive was added to the vials, then the spores according to Table 1 in function of the test to be performed. The VOC were sampled by inserting the SPME fiber into the vial as soon as the spores were added, and the vials were put back in the temperature control systems. The SPME fiber use was an assembly Divinylbenzene/Carboxen/Polydimethylsiloxane (DVB/CAR/PDMS) (Sigma Aldrich—product number 57328-U from Supelco) conditioned at 270° C. for 30 minutes before use. The SPME fibers were removed 20 minutes after the addition of the spores and were analyzed using the GC-MS according to the lab protocols for the apparatus.

[3] = GM + spores (about 500-800 CFU) + additive 5 mM, 60° C., 20 minutes

SMILES	Formation of common VOC such as 1-nonene ([1]; Example 2)	Butanal produced (qualitative amount) ([1]; GM + 5 mM additive + 5000-10000 spores, 65° C., 15 minutes)	Detection of 1-Nonene, Nonane, 1-Octene, Octane, Heptane ([2]; Example 1)	Propene concentration change from the presence of the additive ([2]; Example 1)	1-butanol intensity in comparison to the growth medium intensity [2, 3]	Acetaldehyde intensity in comparison to the growth medium intensity [2, 3]	Formaldehyde intensity in comparison to the growth medium intensity [2, 3]	Nonanal Octanal Heptanal intensity in comparison to the growth medium intensity [2, 3]
C[C@@H](O)[C@H](N)C(=O)O [L-threonine]	leads to the formation	<control						
CO[C@H]1O[C@H](CO)[C@@H](O)[C@H](O)[C@H]1O [Additive, Methyl alpha-D-glucopyranoside]			detected only in the presence of the additive	not increasing	(+up to 3X)	to 2X	(+10X)	(up to 3X)
